Measurements reported in patent US11834454B2, “Alkynylphenylbenzamide compounds and applications thereof” (SHENZHEN NEWDEL BIOTECH CO., LTD., priority 2021, dated 2023).

Assays:
[1] = Effect on the body weight of mice in the allograft study; type: in vivo, CB17-SCID female mice; details: four doses 6.25, 12.5, 25, 50 mg/kg oral once a day
Method: (§1) After washed twice with normal saline, the cells were adjusted to a density of 1×10^7 cells/mL and placed on ice, and injected subcutaneously into the right axilla of CB17-SCID female mice (purchased from Viton Lever, Beijing, 6-8 weeks old) as soon as possible, with 200 μL each injection.
(§2) The control group was given the same volume of mixed solvent orally. Body weight and tumor volume were recorded every two days.

VEGFR2 = VEGFR2 (Homo sapiens, UniProt P35968); experiment: Kinase selectivity, Z'-LYTE
Method: (§3) Enzymatic reaction: In a 384-well plate, added 5 μL of enzyme-substrate system [50 mM 4-hydroxyethylpiperazineethanesulfonic acid (HEPES) pH 7.5, 0.01% BRIJ-35, 10 mM of magnesium chloride (MgCl2), 1 mM of ethylene glycol bis(2-aminoethyl ether)tetraacetic acid (EGTA), 2 μM of Tyr 01 peptide substrate], transferred 5 nL of compound (concentration gradient) using an Echo520 Ultra-Micro Liquid Pipetting System. […] Shaked and mixed, then centrifuged, and reacted at 30° C. in the dark for 1.5 hours.

Bcr-Abl = Bcr-Abl (Homo sapiens, UniProt P00519); experiment: Kinase selectivity, Z'-LYTE
Method: as §3

[2] = system: Ba/F3-CD74-TRKAG^667C allograft mouse model; experiment: In vivo antitumor efficacy, allograft mouse model; design: species or system CB17-SCID female mice; details: for TGI: after treatment for 12 days
Method: as §1, §2

VEGFR2, sequence (P35968 20-1356, species assumed): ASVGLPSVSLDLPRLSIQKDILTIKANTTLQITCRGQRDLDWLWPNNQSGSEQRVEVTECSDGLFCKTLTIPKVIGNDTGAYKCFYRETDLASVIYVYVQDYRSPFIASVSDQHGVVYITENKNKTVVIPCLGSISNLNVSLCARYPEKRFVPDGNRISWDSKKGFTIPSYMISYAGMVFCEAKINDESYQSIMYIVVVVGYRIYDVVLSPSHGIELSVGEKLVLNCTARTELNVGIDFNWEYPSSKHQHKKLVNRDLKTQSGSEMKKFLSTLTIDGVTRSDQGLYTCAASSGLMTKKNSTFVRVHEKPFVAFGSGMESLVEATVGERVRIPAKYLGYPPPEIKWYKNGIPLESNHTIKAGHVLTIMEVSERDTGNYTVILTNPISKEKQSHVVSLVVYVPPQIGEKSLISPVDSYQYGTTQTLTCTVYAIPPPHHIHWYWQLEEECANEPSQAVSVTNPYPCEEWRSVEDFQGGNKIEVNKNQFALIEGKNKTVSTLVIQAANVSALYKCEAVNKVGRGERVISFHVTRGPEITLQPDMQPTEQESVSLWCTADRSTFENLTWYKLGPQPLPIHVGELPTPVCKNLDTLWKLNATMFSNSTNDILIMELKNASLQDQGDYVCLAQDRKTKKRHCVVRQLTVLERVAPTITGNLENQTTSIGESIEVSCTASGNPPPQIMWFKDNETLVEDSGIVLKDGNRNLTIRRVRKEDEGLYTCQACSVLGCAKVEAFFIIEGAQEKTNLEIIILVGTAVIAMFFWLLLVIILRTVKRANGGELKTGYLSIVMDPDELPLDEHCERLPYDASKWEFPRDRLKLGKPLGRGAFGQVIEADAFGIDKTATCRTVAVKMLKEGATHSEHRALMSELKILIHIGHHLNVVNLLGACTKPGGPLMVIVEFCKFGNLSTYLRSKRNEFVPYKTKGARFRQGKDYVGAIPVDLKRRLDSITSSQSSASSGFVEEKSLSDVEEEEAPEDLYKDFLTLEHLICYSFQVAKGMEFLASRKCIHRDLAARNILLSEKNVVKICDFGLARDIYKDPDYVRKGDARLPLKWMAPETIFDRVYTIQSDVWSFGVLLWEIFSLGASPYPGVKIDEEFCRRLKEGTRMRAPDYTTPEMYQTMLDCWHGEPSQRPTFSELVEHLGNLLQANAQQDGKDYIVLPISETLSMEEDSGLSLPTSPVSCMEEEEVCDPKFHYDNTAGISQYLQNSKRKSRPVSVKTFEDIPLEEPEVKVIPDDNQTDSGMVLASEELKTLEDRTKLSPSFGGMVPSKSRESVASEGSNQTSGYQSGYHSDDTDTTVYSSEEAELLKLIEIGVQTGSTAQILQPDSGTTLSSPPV
Bcr-Abl, sequence (P00519 242-493 limits assumed): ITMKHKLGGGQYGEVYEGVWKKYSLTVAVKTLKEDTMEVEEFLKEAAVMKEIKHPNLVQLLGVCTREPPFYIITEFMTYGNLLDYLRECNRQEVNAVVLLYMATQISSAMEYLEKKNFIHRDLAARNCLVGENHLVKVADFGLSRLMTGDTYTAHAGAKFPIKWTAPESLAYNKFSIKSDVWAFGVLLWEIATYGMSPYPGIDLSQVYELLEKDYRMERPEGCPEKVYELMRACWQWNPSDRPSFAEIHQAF

IC50 (VEGFR2): 833 nM
IC50 (Bcr-Abl): > 10 µM
Compound: Cc1c(C#Cc2cnc3ccc(N4CCC(O)CC4)nn23)cccc1C(=O)Nc1cc(Cl)cc(C(F)(F)F)c1 [XS3-55, N-(3-CHLORO-5-(TRIFLUOROMETHYL)PHENYL)-3-((6-(4-HYDROXYPIPERIDIN-1-YL)IMIDAZO[1,2-B]PYRIDAZINE-3-YL)ETHYNYL)-2-METHYLBENZAMIDE]
effect on mouse body weight [1]: no obvious adverse effect
TGI ([2]; 6.25 mg/kg/day oral): 50.9%
TGI ([2]; 12.5 mg/kg/day oral): 76.3%
TGI ([2]; 25 mg/kg/day oral): 89.2%
TGI ([2]; 50 mg/kg/day oral): 91.6%
tumor size ([2]; after 2 days of treatment at the lowest dose of 6.25 mg/kg, oral): Significant reductions in tumor size
